In PubChem BioAssay (NCI) one finds GI50 and TGI data, which are given here for 21 compounds.

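Grown in 96-well plates, cells were treated for 48 hours with each compound at five concentrations. Insufficient inhibition: endpoint recorded as highest concentration tested. GI50 = concentration required for 50% inhibition of growth. TGI is the concentration that stops growth completely.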

Holding throughout (assay): growth of human tumour cells (NCI), 48 h
Assay [1] relates to HT29 colon.
In assay [2] the test system is K-562 leukemia.
For assay [3], the system named is KM12 colon.
Assay [4] deals with LOX IMVI melanoma.
Assay [5] deals with MALME-3M melanoma.
Assay [6] relates to RXF 393 renal.
Assay [7] relates to SF-295 CNS.
The subject of assay [8] is TK-10 renal.
Assay [9] relates to UACC-257 melanoma.
Assay [10] relates to UO-31 renal.

As to `CC(C)(C)c1cc2c(OP(c3ccccc3)c3ccccc3)c(c1)Cc1cc(C(C)(C)C)cc(c1OP(c1ccccc1)c1ccccc1)Cc1cc(C(C)(C)C)cc(c1OP(c1ccccc1)c1ccccc1)Cc1cc(C(C)(C)C)cc(c1OP(c1ccccc1)c1ccccc1)C2`, the GI50 in assay [1] is 47.8 µM; in assay [2], more than 50 µM; in assay [3], more than 50 µM; in assay [4], 22.9 µM; in [5], more than 50 µM; in assay [7], more than 50 µM. The GI50 in [8], in assay [9] and in [10] was more than 50 µM throughout. Moreover, the TGI in assay [1], in [2], in assay [3], in [4], in assay [5] and in [6] was more than 50 µM in each case. For the same compound, the TGI in assay [7], in assay [8], in assay [9] and in assay [10] was more than 50 µM in each case.

Take `[O-]c1c(-c2ccccc2)[se]c(-c2ccccc2)[n+]1-c1ccccc1`: the TGI is 52.9 µM in [1]; more than 100 µM in assay [2]; 23.1 µM in assay [3]; 30.5 µM in [4]; 29.3 µM in assay [5]; 8.45 µM in assay [6]. In addition, the TGI is 12.1 µM in assay [7], 20.6 µM in [8], 25.3 µM in assay [9] and 9.84 µM in assay [10].

Regarding `C=CC1(C)/C(=N\O)C(C)(CC)C(=O)N1O` (configuration not stated), the TGI in [1], in [2], in assay [3], in assay [4], in assay [5] and in assay [6] was more than 100 µM throughout. The TGI in assay [7], in [8], in assay [9] and in assay [10] was more than 100 µM throughout.

Take `COc1ccc(-c2ccc(=O)oc2-c2cc(OC)c(OC)c(OC)c2)cc1O`: the GI50 in assay [1] was 0.663 µM; in assay [2] it was less than 0.0229 µM; in assay [3] it was less than 0.0248 µM; in assay [4] it was 0.051 µM; in assay [6], less than 0.01 µM; in assay [7], 0.0157 µM. Also, the GI50 in [8] was 62.3 µM; in assay [9], 0.099 µM; in assay [10], less than 0.0208 µM. Besides, the TGI was more than 100 µM in [2]; more than 35.8 µM in assay [3]; more than 100 µM in assay [4]; more than 100 µM in assay [5]; 0.011 µM in assay [6]; more than 100 µM in [7]. Further, the TGI in [8], in assay [9] and in assay [10] was more than 100 µM in each case.

For `O=S(O)CCCCSSCCCCS(=O)(O)=S`, the TGI in [1], in [2], in assay [3], in assay [4], in assay [5] and in assay [6] was more than 100 µM throughout. Besides, the TGI in assay [7], in [8], in assay [9] and in assay [10] was more than 100 µM each time.

For the compound `CCCN(CCC)c1ccc(C=O)c(OC)c1`, the GI50 in [1] is 17 µM; in assay [2], 19.2 µM; in assay [3] it was 23.7 µM; in [4] it was 25.8 µM; in [5] it was 18.7 µM; in assay [6] it was 26.9 µM. Further, the GI50 in [7] is 15.8 µM; in assay [8], 24.2 µM; in assay [9], 18.5 µM; in assay [10], 16.5 µM. In addition, the TGI was 70.8 µM in assay [1]; more than 100 µM in assay [2]; 83.8 µM in assay [3]; more than 100 µM in assay [4]; 64.6 µM in assay [5]; more than 100 µM in [6]. Also, the TGI in assay [7] was 64.5 µM; in [8], 86.1 µM; in [9], 61.2 µM; in [10], more than 100 µM.

`O=C1c2ccccc2C(=O)c2c1c(NCCNCCO)c1cc[nH]c1c2NCCNCCO`: the GI50 was 2.78 µM in [1]; 1.63 µM in assay [2]; 4.34 µM in assay [3]; 1.53 µM in assay [4]; 1.8 µM in [5]; 2.59 µM in [6]. For the same compound, the GI50 is 4.37 µM in assay [7], 6.04 µM in assay [8], 7.06 µM in [9] and 62.9 µM in [10]. For the same compound, the TGI is more than 41.4 µM in assay [1]; more than 39.9 µM in [3]; more than 100 µM in assay [4]; 5.16 µM in [5]; 13.2 µM in assay [6]; 43 µM in assay [7]. Also, the TGI was 44.9 µM in assay [8], 29.9 µM in [9] and more than 100 µM in [10].

Regarding `COc1cccc(C(=O)O)c1Cc1cccc2ccccc12`, the TGI in assay [1], in [2], in assay [3], in assay [4], in [5] and in assay [6] was more than 100 µM in each case. For the same compound, the TGI in assay [7], in assay [8], in assay [9] and in assay [10] was more than 100 µM each time.

For the compound `NC(N)=NS(=O)(=O)c1ccc(NC(=O)c2ccc(Cl)c3c(Nc4ccc(S(=O)(=O)N=C(N)N)cc4)c4ccccc4nc23)cc1`, the TGI in assay [1], in assay [2], in [3], in [4], in [5] and in assay [6] was more than 100 µM each time. Besides, the TGI in assay [7], in assay [9] and in [10] was more than 100 µM each time.

For the compound `Cc1cc(Cl)ccc1OCC(=O)Oc1c(Cl)c(Cl)c(Cl)c(Cl)c1Cl`, the TGI in assay [1] is 69.1 µM; in assay [2], more than 100 µM; in assay [3], 52.4 µM; in [4] it was 51.6 µM; in [5], 45.3 µM; in [6] it was 37.3 µM. Moreover, the TGI in [7] is 67.9 µM; in assay [8] it was 69.1 µM; in [9] it was 45.3 µM; in [10] it was 32 µM.

`CC(C)C(OC(=O)c1cc(NC(=S)c2ccccc2)ccc1Cl)C(C)C`: the TGI in assay [1] is 34.4 µM; in assay [2], more than 100 µM; in [3] it was 39.6 µM; in assay [4], 70.4 µM; in assay [5], more than 57.8 µM; in assay [6] it was 37.1 µM. Also, the TGI is more than 84.7 µM in assay [7], more than 86.3 µM in assay [8], 58.5 µM in assay [9] and 54.6 µM in [10].

Turning to `CP(=O)(CCSc1ccccc1)c1ccccc1` (configuration not stated), the TGI in [1], in assay [2], in assay [4], in assay [5], in [6] and in assay [7] was more than 100 µM each time. Moreover, the TGI in [8], in [9] and in assay [10] was more than 100 µM throughout.

With `CC(=O)OC1CC(C)c2c1ncnc2N1CCN(C(=O)OC(C)(C)C)CC1` (configuration not stated), the GI50 was 37.1 µM in assay [1]; 37.8 µM in [2]; 38.1 µM in [3]; 47.8 µM in assay [4]; 35.5 µM in assay [5]; 31.9 µM in assay [6]. In addition, the GI50 in assay [8] is 70.8 µM; in [10] it was more than 100 µM. The TGI was 88.5 µM in assay [1]; more than 100 µM in assay [2]; more than 100 µM in assay [3]; more than 100 µM in [4]; more than 100 µM in assay [5]; more than 100 µM in assay [6]. In addition, the TGI in assay [8] and in [10] was more than 100 µM throughout.

With `COc1cc([N+](=O)[O-])c(S(=O)(=O)O)cc1-n1nc(-c2ccccc2)n[n+]1-c1cc(S(=O)(=O)[O-])c([N+](=O)[O-])cc1OC`, the TGI in [1], in assay [2], in assay [3], in assay [4], in assay [5] and in assay [6] was more than 100 µM throughout. Also, the TGI in [7], in assay [9] and in assay [10] was more than 100 µM throughout.

With `CC(=O)N1C(=O)C(=O)c2cc(Cl)ccc21`, the TGI in [1], in assay [2], in assay [3], in assay [4], in assay [5] and in [6] was more than 100 µM throughout. In addition, the TGI in assay [7], in assay [8] and in assay [10] was more than 100 µM throughout.

On to `CN(C)CC1CCC(CN(C)C)C1=NO` (configuration not stated), for which the TGI in assay [1] was more than 100 µM; in assay [2], more than 100 µM; in assay [4], more than 100 µM; in [5], more than 100 µM; in assay [6], more than 100 µM; in [7], more than 10 µM. In addition, the TGI in assay [8], in [9] and in assay [10] was more than 100 µM in each case.

As to `Cc1occc1C(=S)Nc1ccc(Cl)c(C(=O)OCC2CC2)c1`, the TGI in [1] is more than 100 µM; in assay [2] it was more than 100 µM; in assay [3], 96.3 µM; in assay [4], more than 100 µM; in [5], more than 100 µM; in [7], more than 100 µM. For the same compound, the TGI in assay [8], in [9] and in [10] was more than 100 µM each time.

Take `CN1CCN(c2ccc3nc(-c4ccc5nc(-c6ccc(C(F)(F)F)cc6)[nH]c5c4)[nH]c3c2)CC1`: the GI50 in assay [1] is 1.41 µM; in assay [3] it was 1.74 µM; in [4] it was 1.82 µM; in assay [5], 1.08 µM; in assay [6], 1.53 µM; in assay [7], 2.44 µM. Besides, the GI50 was 1.75 µM in [9] and 12.5 µM in assay [10]. Moreover, the TGI was 3.13 µM in assay [1]; 3.27 µM in assay [3]; 3.36 µM in assay [4]; 2.44 µM in assay [5]; 3.12 µM in assay [6]; 9.51 µM in assay [7]. In addition, the TGI in [9] was 3.42 µM; in [10], 28 µM.

With `O=c1cc(-c2ccccc2)oc2cc(OCc3cn(Cc4ccc(F)cc4)nn3)cc(O)c12`, the GI50 in [1] was more than 100 µM; in [2], more than 100 µM; in [3] it was more than 100 µM; in assay [4], more than 100 µM; in [5], 5.06 µM; in assay [6], 3.58 µM. Besides, the GI50 in assay [7] is 10.2 µM; in [8], 10.4 µM; in [9], more than 100 µM. The TGI is more than 100 µM in [1]; more than 100 µM in [2]; more than 100 µM in [3]; more than 100 µM in assay [4]; more than 100 µM in assay [5]; 30.1 µM in assay [6]. Moreover, the TGI in assay [7] was 46.8 µM; in assay [8], 28.6 µM; in assay [9], more than 100 µM.

With `CC(C)NCCCNC1=C(Cl)C(=O)c2ccccc2C1=O`, the GI50 in assay [1] is 2.5 µM; in assay [2], 2.05 µM; in assay [3] it was 9.59 µM; in assay [4], 1.87 µM; in [5], 1.97 µM; in assay [6], 14.5 µM. Moreover, the GI50 in assay [8] is 22.7 µM; in assay [9], 1.91 µM; in assay [10], 14.4 µM. Also, the TGI in [1] is 5.12 µM; in [2], 4.92 µM; in [3], 22.3 µM; in [4], 3.96 µM; in assay [5] it was 3.69 µM; in assay [6] it was 27.8 µM. In addition, the TGI came to 38.8 µM in assay [8], 3.63 µM in [9] and 29.2 µM in assay [10].

For the compound `Nc1nc(N)c2ncn(Cc3c(Cl)cccc3Cl)c2n1`, the TGI in assay [1], in assay [3], in assay [4], in assay [5], in assay [6] and in [7] was more than 100 µM throughout. Moreover, the TGI in assay [8], in [9] and in [10] was more than 100 µM throughout.
